Results published in article PMC4309848, “The role of the catecholic and the electrophilic moieties of caffeic acid in Nrf2/Keap1 pathway activation in ovarian carcinoma cell lines” (Redox Biology, 2014).

How the values were obtained:
[1] = biological target: glutathione reductase-1 (GSR, GSR1); test: in vitro enzyme activity assay (GSSG/NADPH, absorbance at […] nm); type: biochemical
[2] = biological target: glutathione-S-transferase (GST, GSTP1); test: in vitro enzyme activity assay (GSH/CDNB conjugation, absorbance at […] nm); type: biochemical

IC50 [1]: 70 µM | IC50 [2]: 95 µM
SMILES: O=C(O)/C=C/c1ccc(O)c(O)c1 [CA, caffeic acid]
